# Experimental data: patent publication US20250296971A1, “GASTRIC INHIBITORY PEPTIDE RECEPTOR LIGANDS” (priority 2021, published 2025)
# Read-outs that look alike come from different tables or passages of the source. *1 amine or outer side, *2 acyl side, *3 side chain or, on linkers, in order; H or OH if unused. Where a SMILES comes first, the peptide text is derived from it. Bridges are numbered along the chain shown (N, C = ends). [ ]: non-standard residue; d: D form. The star is where a group is joined. X3 = O=C(O)CN1CCN(CC(=O)O)CCN(CC(=O)NCCCOCCOCCOCCCN*)CCN(CC(=O)O)CC1; NH(1-deoxy-D-glucityl) = OC[C@@H](O)[C@@H](O)[C@H](O)[C@@H](O)CN*; DOTA = O=C(O)CN1CCN(CC(=O)O)CCN(CC(=O)*)CCN(CC(=O)O)CC1; Trp(5-Br) = N[C@@H](Cc1c[nH]c2ccc(Br)cc12)C(=O)O; Trp(5-Cl) = N[C@@H](Cc1c[nH]c2ccc(Cl)cc12)C(=O)O; Pyridine(2,6-diCH2) = c1cc(C[*:1])nc(C[*:2])c1; Pro(4R-NH2) = N[C@H]1CN[C@H](C(=O)O)C1; X4 = O=C(NCCN[*:2])c1cccc(C[*:1])c1; Glutaryl = O=C(CCCC(=O)[*:2])[*:1]; X6 = c1cc(CSCCN[*:2])nc(C[*:1])c1; Cya = N[C@@H](CS(=O)(=O)O)C(=O)O; Hyp = O=C(O)[C@@H]1C[C@@H](O)CN1; X1 = O=C(CN1CCC(N[*:1])CC1)[*:2]; Suc = O=C(CCC(=O)[*:2])[*:1]; hSer = N[C@@H](CCO)C(=O)O; NHCH(CH2OH)2 = OCC(CO)N*; Api = NC1(C(=O)O)CCNCC1; Thp = NC1(C(=O)O)CCOCC1; Aib = CC(C)(N)C(=O)O
# Columns and labels:
# [1] = biological target: T1, GIPR (CHO-K1-hGIPR cells) (Homo sapiens, UniProt P48546); test: FACS binding assay; settings: read-out: pIC50 Category (converted)
# T1 construct: host or cells: CHO-K1
# T1 sequence (P48546 22-466): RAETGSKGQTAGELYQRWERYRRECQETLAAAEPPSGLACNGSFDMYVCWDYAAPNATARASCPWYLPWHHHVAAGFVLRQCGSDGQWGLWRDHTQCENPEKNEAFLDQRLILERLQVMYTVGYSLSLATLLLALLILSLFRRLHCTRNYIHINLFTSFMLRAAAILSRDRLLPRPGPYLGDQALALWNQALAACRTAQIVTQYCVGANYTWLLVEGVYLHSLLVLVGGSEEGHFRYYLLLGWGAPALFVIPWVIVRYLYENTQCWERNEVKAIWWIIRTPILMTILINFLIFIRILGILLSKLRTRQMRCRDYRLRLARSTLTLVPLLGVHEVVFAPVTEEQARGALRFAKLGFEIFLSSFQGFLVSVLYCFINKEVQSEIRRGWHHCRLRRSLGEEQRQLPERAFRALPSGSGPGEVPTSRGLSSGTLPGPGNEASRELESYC
# In short: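 Median fluorescence in the APC channel, measured on washed CHO-K1 cells overexpressing human GIPR, was fitted by four-parameter logistic regression against peptide concentration to yield EC50 or IC50 values. Secondary labelling used APC-streptavidin (1 μg/mL, 30 min, ice).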
# [2] = biological target: T2, human GIP receptor (bioGIPR) (Homo sapiens, UniProt P48546); test: Surface plasmon resonance (SPR) based binding assay; settings: Single Cycle Kinetic mode, 25° C.; for Kd: SPR, 1:1 Langmuir binding model, read-out: pKD Category (converted); for t1/2 Category: SPR dissociation half-life
# T2 construct: Biotinylate extracellular of the human GIP receptor (bioGIPR, Proteros biostructures GmbH, lot #02/2b); purchased Proteros biostructures GmbH lot #02/2b
# T2 sequence (P48546 22-138 limits assumed): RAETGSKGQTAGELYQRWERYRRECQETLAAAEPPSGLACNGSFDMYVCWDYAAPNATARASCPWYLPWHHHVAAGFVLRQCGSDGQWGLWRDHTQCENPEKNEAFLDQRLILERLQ
# In short: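 Binding was measured at 25 °C by single-cycle kinetics against a reference flow cell, with blank-run and drift correction, after capturing biotinylated GIPR extracellular domain to ~3500 RU. Running buffer: HBST, 0.1% DMSO. A 1:1 Langmuir model gave kinetic rates, KD, t1/2 and pKD.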
# [3] = competition with 20 nM GIP-057, 4° C., 1 hour
# [4] = competition with 20 nM GIP-057, 4° C. for 1 hour
"IC50 [1, 3]",Kd [2],t1/2 Category [2],"IC50 [1, 4]",Structure (SMILES)
< 10 nM,< 1 nM,,,"CC[C@H](C)[C@@H]1NC(=O)[C@H](CC(C)C)NC(=O)C(C)(C)NC(=O)[C@@H](NC(=O)[C@@H](CC(C)C)NC(=O)[C@H](CCC(=O)O)NC(=O)[C@@H]2C[C@@H](O)CN2C(=O)[C@H](Cc2c[nH]c3ccc(Cl)cc23)NC(=O)[C@H](Cc2c[nH]c3ccccc23)NC(=O)[C@H](CS(=O)(=O)O)NC(C)=O)CSCc2cccc(n2)CSCCNC1=O [GIP-179, Ac-Cya-Trp-5Clw-Hyp-Glu-leu-[Cys(2Lut)-Aib-Leu-Ile-AET]] (Ac-[Cya]W[Trp(5-Cl)][Hyp]E[dL]C[Aib]LI; linker 7-C via X6)"
< 10 nM,< 1 nM,A (t1/2 values>15 min),,"CC[C@H](C)[C@@H]1NC(=O)[C@H](CC(C)C)NC(=O)C2(CCOCC2)NC(=O)[C@@H](NC(=O)[C@@H](CC(C)C)NC(=O)[C@H](CCC(=O)O)NC(=O)[C@@H]2C[C@@H](O)CN2C(=O)[C@H](Cc2c[nH]c3ccc(Cl)cc23)NC(=O)[C@H](Cc2c[nH]c3ccccc23)NC(=O)[C@H](CO)NC(C)=O)CSCc2cccc(n2)CSC[C@@H](C(N)=O)NC1=O [GIP-188, Ac-Ser-Trp-5Clw-Hyp-Glu-leu-[Cys(2Lut)-Thp-Leu-Ile-Cys]-NH2] (Ac-SW[Trp(5-Cl)][Hyp]E[dL]C[Thp]LIC-NH2; linker 7-11 via Pyridine(2,6-diCH2))"
< 10 nM,< 1 nM,A (t1/2 values>15 min),,"CC[C@H](C)[C@@H]1NC(=O)[C@H](CC(C)C)NC(=O)C2(CCOCC2)NC(=O)[C@@H](NC(=O)[C@@H](CC(C)C)NC(=O)[C@H](CCO)NC(=O)[C@@H]2C[C@@H](O)CN2C(=O)[C@H](Cc2c[nH]c3ccc(Cl)cc23)NC(=O)[C@H](Cc2c[nH]c3ccccc23)NC(=O)[C@H](CC(=O)O)NC(C)=O)CSCc2cccc(n2)CSC[C@@H](C(N)=O)NC1=O [GIP-194, Ac-Asp-Trp-5Clw-Hyp-Hse-leu-[Cys(2Lut)-Thp-Leu-Ile-Cys]-NH2] (Ac-DW[Trp(5-Cl)][Hyp][hSer][dL]C[Thp]LIC-NH2; linker 7-11 via Pyridine(2,6-diCH2))"
< 10 nM,< 1 nM,A (t1/2 values>15 min),,"CC[C@H](C)[C@@H]1NC(=O)[C@H](CC(C)C)NC(=O)C2(CCOCC2)NC(=O)[C@@H](NC(=O)[C@@H](CC(C)C)NC(=O)[C@H](CCC(=O)O)NC(=O)[C@@H]2C[C@@H](O)CN2C(=O)[C@H](Cc2c[nH]c3ccc(Br)cc23)NC(=O)[C@H](Cc2c[nH]c3ccccc23)NC(=O)[C@H](CCO)NC(C)=O)CSCc2cccc(n2)CSC[C@@H](C(N)=O)NC1=O [GIP-197, Ac-Hse-Trp-5Brw-Hyp-Glu-leu-[Cys(2Lut)-Thp-Leu-Ile-Cys]-NH2] (Ac-[hSer]W[Trp(5-Br)][Hyp]E[dL]C[Thp]LIC-NH2; linker 7-11 via Pyridine(2,6-diCH2))"
,1 to 7.94 nM,C (t1/2 between 5 min and 2.1 min),10 to 79.4 nM,"CC[C@H](C)[C@@H]1NC(=O)[C@H](CC(C)C)NC(=O)C(C)(C)NC(=O)[C@@H](NC(=O)[C@@H](CC(C)C)NC(=O)[C@H](CCC(=O)O)NC(=O)[C@@H]2CCCN2C(=O)[C@H](Cc2c[nH]c3ccc(Cl)cc23)NC(=O)[C@H](Cc2c[nH]c3ccccc23)NC(=O)[C@H](CC(=O)O)NC(=O)CCC(=O)NCCCOCCOCCOCCCNC(=O)CN2CCN(CC(=O)O)CCN(CC(=O)O)CCN(CC(=O)O)CC2)CSCc2cccc(c2)C(=O)NCCNC1=O [GIP-359, DOTA-Ttds-Asp-Trp-5Clw-Pro-Glu-leu-[Cys(3CbBn)-Aib-Leu-Ile-en]] ({X3-Suc}-DW[Trp(5-Cl)]PE[dL]C[Aib]LI; linker 7-C via X4)"
,< 1 nM,A (t1/2 values>15 min),< 10 nM,"CC[C@H](C)[C@@H]1NC(=O)[C@H](CC(C)C)NC(=O)C2(CCN(C(=O)CN3CCN(CC(=O)O)CCN(CC(=O)O)CCN(CC(=O)O)CC3)CC2)NC(=O)[C@@H](NC(=O)[C@@H](CC(C)C)NC(=O)[C@H](CCC(=O)O)NC(=O)[C@@H]2C[C@@H](N)CN2C(=O)[C@H](Cc2c[nH]c3ccc(Cl)cc23)NC(=O)[C@H](Cc2c[nH]c3ccccc23)NC(=O)[C@H](CC(=O)O)NC(=O)CCCC(=O)NC[C@H](O)[C@@H](O)[C@H](O)[C@H](O)CO)CSCc2cccc(n2)CSC[C@@H](C(=O)NC2CCN(CC(=O)N[C@H](CCC(=O)NC(CO)CO)C(=O)NC(CO)CO)CC2)NC1=O [GIP-372, AGLU-Glutar-Asp-Trp-5Clw-Tap-Glu-leu-[Cys(2Lut)-Apc(DOTA)-Leu-Ile-Cys]-APAc-GLUSEROL] ({NH(1-deoxy-D-glucityl)-Glutaryl}-DW[Trp(5-Cl)][Pro(4R-NH2)]E[dL]C[Api](DOTA)LIC[X1][dE](NHCH(CH2OH)2)-{NHCH(CH2OH)2}; linker 7-11 via Pyridine(2,6-diCH2))"
